One block for each compound: values may come before it.
Tests used:
Trichomonas vaginalis = test: MIC on protozoa (Trichomonas vaginalis); type: cell-based; conditions: Metronidazole resistant strains T. vaginalis SS-20 and SS-22 (25 and 50)
Experimental: Protozoal suspensions are prepared from 24-hour cultures grown at 37° C. and 5% CO2 in DIAMOND T.Y.M. broth supplemented with 10% heat-inactivated FCS.
The suspensions are adjusted, in the same medium, to a final concentration of 2.5×10^5 cells/ml in each well of a 96-well microtiter plate. Substance dilutions (0.3 log) are added to the suspensions in order to have a range of final concentrations from 0.19 to 100 mcg/ml. Microtiters are then incubated at 37° C. and 5% CO2 for 24 hours. MIC is referred to as the minimal concentration inhibiting either protozoa or flagella or undulating membrane motility (Cf. JULIANO C., MARTINOTTI M. G., […] P., In vitro effect of microtubule inhibitors on T. vaginalis, Microbiologia, 8:31-42, 1985. LOVGREN T. and SALMELA I., Invitro sensitivity of T. vaginalis and C. albicans to chemotherapeutic agents, Acta Path. Microbiol. Scand.. 86:155-158, 1978).

[1] = tested on: T. mentagrophytes IDI D1049; test: Antifungal activity in experimental Tinea pedis in the guinea-pig paw; type: in vivo, Hartley guinea-pig; conditions: for A (clinical sign score) / D (clinical sign score) / E (clinical sign score): scale 0-3
Source text: Twelve male Hartley guinea-pig (C. RIVER), weighing 350-400 gr, have been utilized (3 animals per experimental group).
One clinical isolate (Tricophyton mentagrophytes IDI D 1049, from Immacolata Dermatological Institute of Rome) was utilized.
Microaleuriospores were first harvested by scraping from a 7-day fungal culture grown in Potato dextrose agar, and then resuspended in Sabouraud broth with 0.5% Tween 80.
After washing, the spores were standardized in sterile saline to yield a final concentration of 1.0×10^8 spores/ml.
Each group included 3 animals, and only the left hind paw was inoculated. For the 2 control groups, 3 animals in total were used, as both hind paws of each animal were inoculated.
Filter paper discs (12-mm diameter and 0.3-mm thickness) were covered with aluminum foil in the lower part to prevent the inoculum spreading. This filter was then sticked to a 1×3-cm piece of biadesive plaster, which adhered to a gauze wrapped around the paw.
The filter paper disc was then wetted with 100 μl of the infective suspension, and subsequently fixed to the guinea-pig paw.
The animal paw was tied up with bandage and plaster, and then left in these conditions for 7 days.
Seven days after infection, the infected areas were uncovered and the type of lesion was graded according to an arbitrary scale, as follows:
These "clinical" signs were examined again on days +14, +21, and +31 (day of sacrifice of animals). Three days following the first observation of the type of lesion (day +10), treatments with the differrent formulations were started, and they went on for 20 days (once a day). Two days following the last treatment (day +31), animals were sacrificed and plantar areas of the paws were dissected into 10 parts for each paw.
These sections were plated onto Mycobiotic agar supplemented with Penicillin G and Streptomicin (100 mcg/ml). Volumes of 50 μl of both antibiotics were then added to the plantar sections to prevent any bacterial growth that might interfere with the growth of T. mentagrophytes in the samples under examination.
The data obtained were expressed as the number of microbiologically sterile cutaneous sections over the total examined sections.

[2] = 1.5%, 20 days once a day, day +31

MIC of Metronidazole (Trichomonas vaginalis): 50 mg/L | MIC (Trichomonas vaginalis; Trichomonas vaginalis, 24 h, read-out: MIC of Metronidazole): 25 mg/L
SMILES: Cc1ncc([N+](=O)[O-])n1CCO [Metronidazole]

SMILES: Clc1ccc(COC(Cn2ccnc2)c2ccc(Cl)cc2Cl)c(Cl)c1 (centres unmarked) [Miconazole, reference compound]
eradication of infection ([1]; 1.5% Miconazole): capable of eradicating infection from all treated samples | A (clinical sign score) ([1]; 1.5%, 7th day): 0 | D (clinical sign score) ([1]; 1.5%, 7th day): 0 | E (clinical sign score) ([1]; 1.5%, 7th day): 0 | A (clinical sign score) ([1]; 1.5%, 14th day): 0 | D (clinical sign score) ([1]; 1.5%, 14th day): 0 | E (clinical sign score) ([1]; 1.5%, 14th day): 0 | A (clinical sign score) ([1]; 1.5%, 21st day): 0 | D (clinical sign score) ([1]; 1.5%, 21st day): 0 | E (clinical sign score) ([1]; 1.5%, 21st day): 0 | A (clinical sign score) ([1]; 1.5%, 31st day): 0 | D (clinical sign score) ([1]; 1.5%, 31st day): 0 | E (clinical sign score) ([1]; 1.5%, 31st day): 0 | sterile samples (%) [1, 2]: 100% | sterile samples (n = 30), number over total [1, 2]: 30/30

Reference: patent US5925369A, “Bis alkanoyl esters of carnitine having bactericidal, fungicidal and antiprotozoal activity” (priority 1996, dated 1999)
